Here are results for 33 molecules from patent US7645752B2, “Sulfonyl substituted 1H-indoles as ligands for the 5-hydroxytryptamine receptors” (Wyeth LLC, priority 2006, dated 2010).

Counter-ions that a name gives are not always drawn.

The term melting point denotes the temperature, or range, at which the solid turns liquid. Usually Ki stands for the dissociation constant of the complex between target and ligand, obtained from inhibition or displacement.

T1 sequence (P50406 whole entry): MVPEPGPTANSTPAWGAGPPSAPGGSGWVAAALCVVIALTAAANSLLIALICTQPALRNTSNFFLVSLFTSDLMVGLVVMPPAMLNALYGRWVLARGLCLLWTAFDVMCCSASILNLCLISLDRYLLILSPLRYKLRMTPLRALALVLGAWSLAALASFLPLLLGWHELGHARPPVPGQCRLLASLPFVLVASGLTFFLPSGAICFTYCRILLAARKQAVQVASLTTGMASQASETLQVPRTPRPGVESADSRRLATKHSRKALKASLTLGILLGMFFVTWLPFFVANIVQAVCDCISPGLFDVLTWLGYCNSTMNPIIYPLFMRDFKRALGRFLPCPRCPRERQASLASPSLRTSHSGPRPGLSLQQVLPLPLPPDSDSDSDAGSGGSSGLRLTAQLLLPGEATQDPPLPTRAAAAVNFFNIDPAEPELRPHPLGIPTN

Tested on in one data set: not given
Assay: not given
Conditions: not given
In the case of `CNCCc1ccc2[nH]cc(S(=O)(=O)c3ccccc3)c2c1` [Example 14, N-methyl-N-{2-[3-(phenylsulfonyl)-1H-indol-5-yl]ethyl}amine], the melting point lay in the range of 151 to 154 °C.

As to `O=S(=O)(c1ccccc1)c1c[nH]c2c(CCN3CCCCC3)cccc12` (as salt: hydrochloride) [Example 27, 3-(phenylsulfonyl)-7-(2-piperidin-1-ylethyl)-1H-indole], the melting point is 231 to 233 °C.

Molecule `NCCc1cccc2[nH]cc(S(=O)(=O)c3cccc(F)c3)c12` (as salt: hydrochloride) [Example 85, {2-[3-(3-fluorophenylsulfonyl)-1H-indol-4-yl]ethyl}amine] came in with a melting point of 122 to 125 °C.

`CCCNCCc1cccc2c(S(=O)(=O)c3ccccc3)c[nH]c12` (as salt: hydrochloride) [Example 20, N-{2-[3-(phenylsulfonyl)-1H-indol-7-yl]ethyl}-N-propylamine]: the melting point lay within 260 to 262 °C.

As to `CCN(CC)CCc1cccc2[nH]cc(S(=O)(=O)c3ccccc3)c12` (as salt: hydrochloride) [Example 42, N,N-diethyl-N-{2-[3-(phenylsulfonyl)-1H-indol-4-yl]ethyl}amine], the melting point lay in the range of 77 to 83 °C.

On to `CN(C)CCc1cccc2[nH]cc(S(=O)(=O)c3ccccc3)c12` (as salt: hydrochloride) [Example 31, N,N-dimethyl-N-{2-[3-(phenylsulfonyl)-1H-indol-4-yl]ethyl}amine], for which the melting point was in the range of 122 to 126 °C.

As to `O=S(=O)(c1ccccc1)c1c[nH]c2cccc(CCN3CCCC3)c12` (as salt: hydrochloride) [Example 43, 3-(phenylsulfonyl)-4-(2-pyrrolidin-1-ylethyl)-1H-indole], the melting point was in the range of 145 to 150 °C.

`CCCNCCc1ccc2[nH]cc(S(=O)(=O)c3ccccc3)c2c1` (as salt: hydrochloride) [Example 2, N-{2-[3-(phenylsulfonyl)-1H-indol-5-yl]ethyl}-N-propylamine]: the melting point fell in the range of 189 to 192 °C.

On to `CC(C)NCCc1ccc2[nH]cc(S(=O)(=O)c3ccccc3)c2c1` (as salt: hydrochloride) [Example 3, N-{2-[3-(phenylsulfonyl)-1H-indol-5-yl]ethyl}propan-2-amine], for which the melting point is 263 °C.

Consider `CC(C)NCCc1cccc2c(S(=O)(=O)c3ccccc3)c[nH]c12` (as salt: hydrochloride) [Example 21, N-{2-[3-(phenylsulfonyl)-1H-indol-7-yl]ethyl}propan-2-amine], for which the melting point is 291 to 293 °C (dec.).

On to `O=S(=O)(c1ccccc1)c1c[nH]c2ccc(CCNCc3ccccc3)cc12` (as salt: hydrochloride) [Example 6, N-benzyl-N-{2-[3-(phenylsulfonyl)-1H-indol-5-yl]ethyl}amine], for which the melting point was in the range of 215 to 220 °C.

With `O=S(=O)(c1ccccc1)c1c[nH]c2ccc(CCN3CCCCC3)cc12` (as salt: hydrochloride) [Example 10, 3-(phenylsulfonyl)-5-(2-piperidin-1-ylethyl)-1H-indole], the melting point is 272 °C.

For `O=S(=O)(c1ccccc1)c1c[nH]c2c(CCNC3CCCC3)cccc12` (as salt: hydrochloride) [Example 23, N-{2-[3-(phenylsulfonyl)-1H-indol-7-yl]ethyl}cyclopentanamine], the melting point is 255 to 256 °C (dec.).

`CCN(C)CCc1cccc2[nH]cc(S(=O)(=O)c3ccccc3)c12` (as salt: hydrochloride) [Example 40, N-ethyl-N-methyl-N-{2-[3-(phenylsulfonyl)-1H-indol-4-yl]ethyl}amine] had a melting point of 92 to 98 °C.

`O=S(=O)(c1ccccc1)c1c[nH]c2cccc(CCNCC3CCCO3)c12` (stereo not shown) (as salt: hydrochloride) [Example 51, N-{2-[3-(phenylsulfonyl)-1H-indol-4-yl]ethyl}-N-((tetrahydrofur-2-yl)methyl)amine] displayed a melting point of 110 to 115 °C.

For the molecule `NCCc1cccc2[nH]cc(S(=O)(=O)c3ccccc3)c12` (as salt: hydrochloride) [Example 61, {2-[3-(phenylsulfonyl)-1H-indol-4-yl]ethyl}amine], the melting point lay within 130 to 134 °C.

In turn, `CNCCc1ccc2[nH]c(-c3ccccc3)c(S(=O)(=O)c3ccccc3)c2c1` [Example 17, N-methyl-N-{2-[2-phenyl-3-(phenylsulfonyl)-1H-indol-5-yl]ethyl}amine] showed a melting point of 180 to 185 °C.

In the case of `CCN(C)CCc1cccc2c(S(=O)(=O)c3ccccc3)c[nH]c12` (as salt: hydrochloride) [Example 24, N-ethyl-N-methyl-N-{2-[3-(phenylsulfonyl)-1H-indol-7-yl]ethyl}amine], the melting point was 215 to 218 °C (dec.).

Turning to `CCN(CC)CCc1cccc2c(S(=O)(=O)c3ccccc3)c[nH]c12` (as salt: hydrochloride) [Example 25, N,N-diethyl-N-{2-[3-(phenylsulfonyl)-1H-indol-7-yl]ethyl}amine], the melting point was 165 to 166 °C (dec.).

Molecule `CNCCc1cccc2c(S(=O)(=O)c3ccccc3)c[nH]c12` (as salt: hydrochloride) [Example 19, N-methyl-N-{2-[3-(phenylsulfonyl)-1H-indol-7-yl]ethyl}amine] gave a melting point of 187 to 188 °C.

As for `O=S(=O)(c1ccccc1)c1c[nH]c2cccc(CCN3CCCCC3)c12` (as salt: hydrochloride) [Example 44, 3-(phenylsulfonyl)-4-(2-piperidin-1-ylethyl)-1H-indole], the melting point is 200 to 205 °C.

Molecule `CCc1[nH]c2ccc(CCNC)cc2c1S(=O)(=O)c1ccccc1` [Example 16, N-{2-[2-ethyl-3-(phenylsulfonyl)-1H-indol-5-yl]ethyl}-N-methylamine] displayed a melting point of 179 to 182 °C.

Take `O=S(=O)(c1ccccc1)c1c[nH]c2ccc(CCN3CCCC3)cc12` (as salt: hydrochloride) [Example 9, 3-(phenylsulfonyl)-5-(2-pyrrolidin-1-ylethyl)-1H-indole]: the melting point fell in the range of 230 to 232 °C.

On to `O=S(=O)(c1ccccc1)c1c[nH]c2c(CCN3CCCC3)cccc12` (as salt: hydrochloride) [Example 26, 3-(phenylsulfonyl)-7-(2-pyrrolidin-1-ylethyl)-1H-indole], for which the melting point is 250 to 252 °C (dec.).

In turn, `CNCCc1ccc2[nH]c(C)c(S(=O)(=O)c3ccccc3)c2c1` [Example 15, N-methyl-N-{2-[2-methyl-3-(phenylsulfonyl)-1H-indol-5-yl]ethyl}amine] registered a melting point of 213 to 215 °C.

With `CCN(CC)CCc1ccc2[nH]cc(S(=O)(=O)c3ccccc3)c2c1` (as salt: hydrochloride) [Example 8, N,N-diethyl-N-{2-[3-(phenylsulfonyl)-1H-indol-5-yl]ethyl}amine], the melting point was 193 to 195 °C.

`O=S(=O)(c1ccccc1)c1c[nH]c2ccc(CCN3CCNCC3)cc12` (as salt: hydrochloride) [Example 13, 3-(phenylsulfonyl)-5-(2-piperazin-1-ylethyl)-1H-indole] registered a melting point of 220 °C.

For `CN(CCc1cccc2[nH]cc(S(=O)(=O)c3ccccc3)c12)C1CCCCC1` (as salt: hydrochloride) [Example 41, N-cyclohexyl-N-methyl-N-{2-[3-(phenylsulfonyl)-1H-indol-4-yl]ethyl}amine], the melting point was 132 to 140 °C.

With `O=S(=O)(c1ccccc1)c1c[nH]c2ccc(CCNC3CC3)cc12` (as salt: hydrochloride) [Example 4, N-{2-[3-(phenylsulfonyl)-1H-indol-5-yl]ethyl}cyclopropanamine], the melting point was in the range of 205 to 208 °C.

For the molecule `CCNCCc1cccc2[nH]cc(S(=O)(=O)c3ccccc3)c12` (as salt: hydrochloride) [Example 33, N-ethyl-N-{2-[3-(phenylsulfonyl)-1H-indol-4-yl]ethyl}amine], the melting point lay within 225 to 228 °C.

Take `CCCNCCc1cccc2[nH]cc(S(=O)(=O)c3ccccc3)c12` (as salt: hydrochloride) [Example 34, N-{2-[3-(phenylsulfonyl)-1H-indol-4-yl]ethyl}-N-propylamine]: the melting point turned out to be 217 °C.

Molecule `NCCc1ccc2c(S(=O)(=O)c3ccccc3)c[nH]c2c1` (as salt: hydrochloride) [Example 109, {2-[3-(phenylsulfonyl)-1H-indol-6-yl]ethyl}amine] displayed a melting point of 178 °C.

On to `O=S(=O)(c1ccccc1)c1c[nH]c2cccc(CCN3CCOCC3)c12` (as salt: hydrochloride) [Example 45, 4-(2-morpholin-4-ylethyl)-3-(phenylsulfonyl)-1H-indole], for which the melting point lay within 164 to 165 °C.

A further data set addresses T1, human cloned 5-HT6 receptors (Homo sapiens, UniProt P50406).
T1 construct: expressed in transfected cells; host or cells: HeLa cells
Put plainly: 5-HT6 binding affinity, [3H]-LSD displacement on membranes of Hela cells.
Conditions: not given
How it is done:
The affinity of test compounds for the 5-HT6 receptor is evaluated in the following manner. Cultured Hela cells expressing human cloned 5-HT6 receptors are harvested and centrifuged at low speed (1,000×g) for 10.0 min to remove the culture media. The harvested cells are suspended in half volume of fresh physiological phosphate buffered saline solution and recentrifuged at the same speed. This operation is repeated. The collected cells are then homogenized in ten volumes of 50 mM Tris.HCl (pH 7.4) and 0.5 mM EDTA. The homogenate is centrifuged at 40,000×g for 30.0 min and the precipitate is collected. The obtained pellet is resuspended in 10 volumes of Tris.HCl buffer and recentrifuged at the same speed. The final pellet is suspended in a small volume of Tris.HCl buffer and the tissue protein content is determined in aliquots of 10-25 microliter volumes. […] The volume of the suspended cell membranes is adjusted to give a tissue protein concentration of 1.0 mg/mL of suspension. The prepared membrane suspension (10 times concentrated) is aliquoted in 1.0 mL volumes and stored at −70° C. until used in subsequent binding experiments.
Binding experiments are performed in a 96 well microtiter plate format in a total volume of 200 microliters. […] The test compounds are added in 20.0 microliter volume.
The bound complex caught on the filter disk is allowed to air dry and the radioactivity is measured in a Packard TopCount® equipped with six photomultiplier detectors, after the addition of 40.0 microliter Microscint®-20 scintillant to each shallow well.
Binding in the presence of varying concentrations of test compound is expressed as a percentage of specific binding in the absence of test compound. The results are plotted as log % bound versus log concentration of the test compound.
On to `CCc1[nH]c2ccc(CCNC)cc2c1S(=O)(=O)c1ccccc1` [Example 16, N-{2-[2-ethyl-3-(phenylsulfonyl)-1H-indol-5-yl]ethyl}-N-methylamine], for which the affinity corresponds to a Ki of 29 nM.

In turn, `CNCCc1ccc2[nH]c(C)c(S(=O)(=O)c3ccccc3)c2c1` [Example 15, N-methyl-N-{2-[2-methyl-3-(phenylsulfonyl)-1H-indol-5-yl]ethyl}amine] came in with a Ki of 44 nM.

The data set is the same for the next values; noted with them: Table 1; [3H]-LSD 3.0 nM, Hela cell membranes; read-out: Ki (nM) @ 5-HT6 receptor.
As to `CNCCc1ccc2[nH]cc(S(=O)(=O)c3ccccc3)c2c1` [Example 14, N-methyl-N-{2-[3-(phenylsulfonyl)-1H-indol-5-yl]ethyl}amine], the Ki amounted to 5.2 nM.

Take `CNCCc1ccc2[nH]c(-c3ccccc3)c(S(=O)(=O)c3ccccc3)c2c1` [Example 17, N-methyl-N-{2-[2-phenyl-3-(phenylsulfonyl)-1H-indol-5-yl]ethyl}amine]: the Ki came to 355 nM.
